Our source for the IC50 values is patent US20110098309A1, “METHODS OF INHIBITING THE FORMATION OF AMYLOID-BETA DIFFUSABLE LIGANDS USING ACYLHYDRAZIDE COMPOUNDS” (priority 2007, published 2011).

By IC50 is commonly meant the concentration that inhibits the measured activity by half. Read a high IC50 as lower potency.

Sequence of Aβ1-42 (P05067 672-713 limits assumed): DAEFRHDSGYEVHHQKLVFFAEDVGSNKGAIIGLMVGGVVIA

This test addresses Aβ1-42 (Homo sapiens, UniProt P05067). Nature of the test: FRET assay of Aβ1-42 oligomer (ADDL) assembly inhibition. The conditions noted are these: 0.2 μM FITC-Aβ(1-42) and 0.8 μM Aβ(1-42), 37° C., six concentrations from about 10 μM to about 0.03 μM. In kind it is biochemical. The text has this: Fluorescence (or Förster) Resonance Energy Transfer (FRET) is a distance-dependent, non-radiative transfer of energy in which the de-excitation of one fluorophore (donor) is coupled to excitation of another fluorophore (acceptor). FRET occurs if (1) the quantum of energy emitted by a donor fluorophore corresponds to an acceptor fluorophore's excitation energy, (2) the orientations of donor and acceptor transition dipoles are nearly parallel and (3) the donor fluorescent emission spectrum overlaps the acceptor absorption spectrum.
In this assay, assembly of Aβ1-42 oligomer formation is monitored by FRET using N-terminal conjugates of fluorescein-Aβ1-42 as both the donor and acceptor fluorophore (fluorescein-fluorescein Ro˜45 Å). […] Inhibition of Aβ1-42 assembly is observed as the absence or attenuation of fluorescein quenching.
FRET and FP assays are performed in 384-well Corning Non-Binding Surface, black, opaque microtiter plates, and the assay buffer consists of 25 mM MOPS-Tris (pH 8.0) with 100 mM MgCl2. The assay volume, containing 0.2 μM FITC-Aβ(1-42) and 0.8 μM Aβ(1-42), is 50 μl and the temperature is 37° C. […] Kinetic traces are collected by recording fluorescence intensity and polarization readings every five minutes over about a three hour time course. […] Positive control reactions contain all buffer components in the absence of added small molecule or antibody reagents. To test for ADDL assembly inhibition, the compound was incubated with the peptide mixture at six concentrations from about 10 μM decreasing to about 0.03 μM.
In the case of `Cn1cc(I)c(C(=O)N/N=C/c2c(O)ccc3ccccc23)n1` [Compound 54, N′-((2-hydroxy-naphthalen-1-yl)methylene)-4-iodo-1-methyl-1H-pyrazole-3-carbohydrazide], the 50% inhibitory concentration (IC50) amounted to 5 µM.

In turn, `COc1cccc(O)c1/C=N/NC(=O)c1ccccc1O` [Compound 55, 2-hydroxy-N′-(2-hydroxy-6-methoxy-benzylidene)benzohydrazide] came in with a 50% inhibitory concentration (IC50) of 5.3 µM.

Regarding `COc1ccc(O)c(/C=N/NC(=O)c2ccc(-n3c(C)ccc3C)cc2)c1` [Compound 56, 4-(2,5-dimethyl-1H-pyrrol-1-yl)-N′-(2-hydroxy-5-methoxy-benzylidene) benzohydrazide], the half-maximal inhibitory concentration (IC50) was determined as 6.1 µM.

On to `O=C(N/N=C/c1cc(OC(F)(F)F)ccc1O)c1ccccc1O` [Compound 57, 2-hydroxy-N′-(2-hydroxy-5-(trifluoro-methoxy)benzylidene)benzohydrazide], for which the 50% inhibitory concentration (IC50) was found to be 6.3 µM.

The compound `COc1ccc(O)c(/C=N/NC(=O)c2cccc3cc[nH]c23)c1` [Compound 58, N′-(2-hydroxy-5-methoxy-benzylidene)-1H-indole-7-carbohydrazide] registered a half-inhibitory concentration (IC50) of 6.4 µM.

`O=C(N/N=C/c1cc(Cl)ccc1O)c1ccccc1O` [Compound 59, N′-(5-chloro-2-hydroxy-benzylidene)-2-hydroxy-benzohydrazide] came in with a concentration for half-maximal inhibition (IC50) of 6.5 µM.

Regarding `C=CCc1cccc(/C=N/NC(=O)c2ccc(I)cc2)c1O` [Compound 60, N′-(3-allyl-2-hydroxy-benzylidene)-4-iodo-benzohydrazide], the IC50 amounted to 6.5 µM.

On to `O=C(N/N=C/c1c(O)ccc2ccccc12)c1sc2cc(F)ccc2c1Cl` [Compound 61, 3-chloro-6-fluoro-N′-((2-hydroxynaphthalen-1-yl)methylene) benzo[b]thiophene-2-carbohydrazide], for which inhibition was half-maximal at 6.7 µM (IC50).

The compound `O=C(N/N=C/c1ccc(O)cc1O)c1ccccc1NS(=O)(=O)c1ccc(Cl)cc1` [Compound 62, 4-chloro-N-(2-(2-(2,4-dihydroxy-benzylidene)hydrazine-carbonyl)phenyl)benzene-sulfonamide] had a 50% inhibitory concentration (IC50) of 6.7 µM.

In turn, `COc1ccc(O)c(/C=N/NC(=O)c2cccc(C)c2O)c1` [Compound 63, 2-hydroxy-N′-(2-hydroxy-5-methoxy-benzylidene)-3-methyl-benzohydrazide] registered a concentration for half-maximal inhibition (IC50) of 7 µM.

The compound `NC(=O)c1ccccc1/C=N/NC(=O)c1ccccc1O` [Compound 64, 2-((2-(2-hydroxybenzoyl)hydrazono)methyl)benzamide] yielded an IC50 of 7.1 µM.

In turn, `Nc1ccc(Cl)cc1/C=N/NC(=O)c1ccccc1O` [Compound 65, N′-(2-amino-5-chloro-benzylidene)-2-hydroxy-benzohydrazide] displayed an IC50 of 7.5 µM.

For the compound `COc1ccc(O)c(/C=N/NC(=O)c2c(O)ccc3ccccc23)c1` [Compound 66, 2-hydroxy-N′-(2-hydroxy-5-methoxy-benzylidene)-1-naphtho-hydrazide], the half-inhibitory concentration (IC50) turned out to be 7.7 µM.

`COc1ccc(O)c(/C=N/NC(=O)c2ccc(F)cc2O)c1` [Compound 67, 4-fluoro-2-hydroxy-N′-(2-hydroxy-5-methoxy-benzylidene)benzohydrazide] returned a half-maximal inhibitory concentration (IC50) of 8.3 µM.

On to `Cc1ccc(O)c(/C=N/NC(=O)c2ccccc2O)c1` [Compound 68, 2-hydroxy-N′-(2-hydroxy-5-methyl-benzylidene)benzohydrazide], for which the half-maximal inhibitory concentration (IC50) came to 9.2 µM.

Regarding `O=C(N/N=C/c1cc(Cl)cc(Cl)c1O)c1ccccc1O` [Compound 69, N′-(3,5-dichloro-2-hydroxy-benzylidene)-2-hydroxy-benzohydrazide], inhibition was half-maximal at 9.2 µM (IC50).

`COc1ccc(O)c(/C=N/NC(=O)c2scc(C)c2Cl)c1` [Compound 70, 3-chloro-N′-(2-hydroxy-5-methoxy-benzylidene)-4-methylthiophene-2-carbohydrazide]: the IC50 amounted to 9.4 µM.

In turn, `COc1ccc(O)c(/C=N/NC(=O)c2ccccc2NS(=O)(=O)c2ccc(Cl)cc2)c1` [Compound 71, 4-chloro-N-(2-(2-(2-hydroxy-5-methoxy-benzylidene)hydrazine-carbonyl)phenyl)benzene-sulfonamide] returned a 50% inhibitory concentration (IC50) of 9.7 µM.

In the case of `O=C(N/N=C/c1ccc2ccccc2c1O)c1ccccc1O` [Compound 72, 2-hydroxy-N′-((1-hydroxy-naphthalen-2-yl)methylene)benzohydrazide], the IC50 is 10.4 µM.

The compound `COc1ccc(O)c(/C=N/NC(=O)c2cc(C)ccc2O)c1` [Compound 73, 2-hydroxy-N′-(2-hydroxy-5-methoxy-benzylidene)-5-methyl-benzohydrazide] yielded a half-inhibitory concentration (IC50) of 10.4 µM.

In turn, `O=C(N/N=C/c1cccc(F)c1O)c1ccccc1O` [Compound 74, N′-(3-fluoro-2-hydroxy-benzylidene)-2-hydroxy-benzohydrazide] had an IC50 of 10.9 µM.

`COc1ccc(O)c(/C=N/NC(=O)c2cc(F)ccc2O)c1` [Compound 75, 5-fluoro-2-hydroxy-N′-(2-hydroxy-5-methoxy-benzylidene)benzohydrazide] gave an IC50 of 10.9 µM.

`COc1ccc(C(=O)N/N=C/c2cc(OC)ccc2O)c(O)c1` [Compound 76, 2-hydroxy-N′-(2-hydroxy-5-methoxy-benzylidene)-4-methoxy-benzohydrazide] had an IC50 of 11.1 µM.

As to `CCOC(=O)c1c(C)oc2cc(Br)c(O)c(/C=N/NC(=O)c3ccccc3O)c12` [Compound 77, ethyl 6-bromo-5-hydroxy-4-((2-(2-hydroxybenzoyl)hydrazono)methyl)-2-methyl-benzofuran-3-carboxylate], inhibition was half-maximal at 11.6 µM (IC50).

`COc1ccc(O)c(/C=N/NC(=O)c2cc(-c3ccc4c(c3)OCO4)n[nH]2)c1` [Compound 78, 3-(benzo[d][1,3]dioxol-5-yl)-N′-(2-hydroxy-5-methoxybenzylidene)-1H-pyrazole-5-carbohydrazide] showed a concentration for half-maximal inhibition (IC50) of 11.6 µM.

As to `C/C(=N\NC(=O)c1ccccc1O)c1ccc(C)cc1` [Compound 79, 2-hydroxy-N′-(1-p-tolylethylidene) benzohydrazide], half-maximal inhibition (IC50) required 13.3 µM.

The compound `CCN(CC)c1ccc(/C=N/NC(=O)c2ccccc2O)c(O)c1` [Compound 80, N'-(4-(diethylamino)-2-hydroxy-benzylidene)-2-hydroxy-benzohydrazide] gave an IC50 of 14.4 µM.

In turn, `COc1ccc(/C=N/NC(=O)c2ccccc2O)c(O)c1` [Compound 81, 2-hydroxy-N′-(2-hydroxy-4-methoxy-benzylidene)benzohydrazide] showed an IC50 of 15 µM.

`COc1ccc(O)c(/C=N/NC(=O)c2cc(OC)ccc2O)c1` [Compound 82, 2-hydroxy-N′-(2-hydroxy-5-methoxy-benzylidene)-5-methoxy-benzohydrazide] returned an IC50 of 15.1 µM.

Consider `COc1ccc(O)c(/C=N/NC(=O)c2ccccc2O)c1` [Compound 83, 2-hydroxy-N′-(2-hydroxy-5-methoxy-benzylidene)benzohydrazide], for which the IC50 amounted to 15.4 µM.

`COc1ccc(O)c(/C=N/NC(=O)c2cc(Cl)ccc2O)c1` [Compound 84, 5-chloro-2-hydroxy-N′-(2-hydroxy-5-methoxy-benzylidene)benzohydrazide] showed an IC50 of 15.5 µM.

`CCOc1ccc(O)c(/C=N/NC(=O)c2ccccc2O)c1` [Compound 85, N′-(5-ethoxy-2-hydroxy-benzylidene)-2-hydroxy-benzohydrazide]: 16 µM corresponded to half-maximal inhibition (IC50).
